Reference: ChEMBL document CHEMBL3593232, “Ring-substituted 8-hydroxyquinoline-2-carboxanilides as potential antimycobacterial agents” (Bioorg Med Chem, 2015)
In brackets after ≈: the same amount, converted by molar mass.

Assays:
[1] = Lipophilicity assessed as capacity factor logK of the compound by HPLC method; format: physicochemical
[2] = test system: Mycobacterium tuberculosis; assay: microbe, parasite or virus in culture; details: H37Ra ATCC 25177, 168 h
Description: Antimycobacterial activity against Mycobacterium tuberculosis H37Ra ATCC 25177 assessed as reduction in bacterial growth incubated at 37 degC for 7 days by alamar blue dye based assay

[3] = test system: Mycobacterium avium complex sp.; format: functional; details: isolate CIT19/06, 120 h
[4] = test system: Mycobacterium avium subsp. paratuberculosis; format: functional; details: isolate CIT03, 264 h
THP-1 = assay: Cytotoxicity against human THP1 cells assessed as reduction in cell viability incubated for 24 hrs by WST1 dye based assay; details: THP-1, 24 h
[5] = test system: Mycobacterium tuberculosis; format: functional, H37Ra ATCC 25177

SMILES	log K [1]	MIC90 [2]	MIC90 [3]	MIC90 [4]	IC50 (THP-1)	Activity [5]
O=C(Nc1ccc(Cl)cc1)c1ccc2cccc(O)c2n1	1.1543	837 µM (≈ 250 µg/mL)	50 µM (≈ 14.9 µg/mL)	837 µM (≈ 250 µg/mL)	> 30 µM	
CO[C@H]1/C=C/O[C@@]2(C)Oc3c(C)c(O)c4c(O)c(c(/C=N/N5CCN(C)CC5)c(O)c4c3C2=O)NC(=O)/C(C)=C\C=C\[C@H](C)[C@H](O)[C@@H](C)[C@@H](O)[C@@H](C)[C@H](OC(C)=O)[C@@H]1C [RIFAMPIN]		10 µM (≈ 8.23 µg/mL)	10 µM (≈ 8.23 µg/mL)	109 µM (≈ 89.7 µg/mL)		
O=C(Nc1cccc(C(F)(F)F)c1)c1ccc2cccc(O)c2n1	1.3206	24 µM (≈ 7.97 µg/mL)	24 µM (≈ 7.97 µg/mL)	24 µM (≈ 7.97 µg/mL)	> 30 µM	18.8%
O=C(Nc1cccc([N+](=O)[O-])c1)c1ccc2cccc(O)c2n1	0.9845	26 µM (≈ 8.04 µg/mL)	808 µM (≈ 250 µg/mL)	808 µM (≈ 250 µg/mL)	> 30 µM	7%
COc1ccccc1NC(=O)c1ccc2cccc(O)c2n1	0.7935	27 µM (≈ 7.95 µg/mL)	51 µM (≈ 15 µg/mL)	51 µM (≈ 15 µg/mL)	> 30 µM	
COc1cccc(NC(=O)c2ccc3cccc(O)c3n2)c1	0.8164	27 µM (≈ 7.95 µg/mL)	27 µM (≈ 7.95 µg/mL)	27 µM (≈ 7.95 µg/mL)	> 30 µM	30.9%
O=C(Nc1cccc(Cl)c1)c1ccc2cccc(O)c2n1	1.1718	50 µM (≈ 14.9 µg/mL)	50 µM (≈ 14.9 µg/mL)	50 µM (≈ 14.9 µg/mL)	> 30 µM	
O=C(Nc1ccccc1[N+](=O)[O-])c1ccc2cccc(O)c2n1	1.1277	97 µM (≈ 30 µg/mL)	808 µM (≈ 250 µg/mL)	97 µM (≈ 30 µg/mL)	> 30 µM	
O=C(Nc1ccc([N+](=O)[O-])cc1)c1ccc2cccc(O)c2n1	1.0495	26 µM (≈ 8.04 µg/mL)	808 µM (≈ 250 µg/mL)	404 µM (≈ 125 µg/mL)	> 30 µM	17.3%
O=C(Nc1ccc(Br)cc1)c1ccc2cccc(O)c2n1	1.2347	729 µM (≈ 250 µg/mL)	44 µM (≈ 15.1 µg/mL)	729 µM (≈ 250 µg/mL)	> 30 µM	
O=C(Nc1ccccc1Br)c1ccc2cccc(O)c2n1	1.0536	23 µM (≈ 7.89 µg/mL)	729 µM (≈ 250 µg/mL)	23 µM (≈ 7.89 µg/mL)	> 30 µM	26.9%
O=C(Nc1ccccc1Cl)c1ccc2cccc(O)c2n1	0.9566	27 µM (≈ 8.07 µg/mL)	837 µM (≈ 250 µg/mL)	27 µM (≈ 8.07 µg/mL)	> 30 µM	21.4%
O=C(Nc1ccccc1F)c1ccc2cccc(O)c2n1	0.6806	28 µM (≈ 7.9 µg/mL)	53 µM (≈ 15 µg/mL)	28 µM (≈ 7.9 µg/mL)	> 30 µM	26.9%
O=C(Nc1ccccc1)c1ccc2cccc(O)c2n1	0.76	30 µM (≈ 7.93 µg/mL)	30 µM (≈ 7.93 µg/mL)	30 µM (≈ 7.93 µg/mL)	> 30 µM	
O=C(Nc1cccc(F)c1)c1ccc2cccc(O)c2n1	0.942	53 µM (≈ 15 µg/mL)	53 µM (≈ 15 µg/mL)	53 µM (≈ 15 µg/mL)	> 30 µM	
Cc1ccc(NC(=O)c2ccc3cccc(O)c3n2)cc1	0.9521	29 µM (≈ 8.07 µg/mL)	54 µM (≈ 15 µg/mL)	29 µM (≈ 8.07 µg/mL)	> 30 µM	
Cc1cccc(NC(=O)c2ccc3cccc(O)c3n2)c1	0.9686	29 µM (≈ 8.07 µg/mL)	29 µM (≈ 8.07 µg/mL)	29 µM (≈ 8.07 µg/mL)	> 30 µM	66.4%
Cc1ccccc1NC(=O)c1ccc2cccc(O)c2n1	0.6944	29 µM (≈ 8.07 µg/mL)	54 µM (≈ 15 µg/mL)	29 µM (≈ 8.07 µg/mL)	> 30 µM	
O=C(Nc1ccc(C(F)(F)F)cc1)c1ccc2cccc(O)c2n1	1.3653	24 µM (≈ 7.97 µg/mL)	24 µM (≈ 7.97 µg/mL)	24 µM (≈ 7.97 µg/mL)	> 30 µM	33.1%
O=C(Nc1ccccc1C(F)(F)F)c1ccc2cccc(O)c2n1	0.9147	24 µM (≈ 7.97 µg/mL)	752 µM (≈ 250 µg/mL)	24 µM (≈ 7.97 µg/mL)	> 30 µM	53.4%
O=C(Nc1ccc(F)cc1)c1ccc2cccc(O)c2n1	0.8598	53 µM (≈ 15 µg/mL)	53 µM (≈ 15 µg/mL)	53 µM (≈ 15 µg/mL)	> 30 µM	
COc1ccc(NC(=O)c2ccc3cccc(O)c3n2)cc1	0.7129	849 µM (≈ 250 µg/mL)	425 µM (≈ 125 µg/mL)	849 µM (≈ 250 µg/mL)	> 30 µM	
O=C(Nc1cccc(Br)c1)c1ccc2cccc(O)c2n1	1.2357	44 µM (≈ 15.1 µg/mL)	44 µM (≈ 15.1 µg/mL)	44 µM (≈ 15.1 µg/mL)	> 30 µM	
